Measured values from patent publication US20220221445A1, “USES OF PATIENT-DERIVED INTESTINAL ORGANOIDS FOR CELIAC DISEASE DIAGNOSIS SCREENING AND TREATMENT” (The Board of TrusteesoftheLelandStanfordJuniorUniversity, priority 2019, published 2022).

System: active CeD organoids
Assay: IL-15 expression and IL-15 gain-of-function in CeD organoids
Assay type: cell-based, human
Conditions: gain-of-function treatment
Source text: IL-15 loss-of-function is studied in gliadin-treated, active CeD organoids +/− IL-15 neutralization by soluble recombinant IL-15 receptor (soluble hIL15Rα, R&D #7194-IR) or anti-human IL-15 neutralizing antibody (R&D #MAB647). Endpoints include inhibition of the following gliadin-induced responses: (1) HLA-DQ2:gliadin tetramer-positive T cell abundance by FACS, (2) tetramer(+) CD4^+ T cell or tetramer(−) CD8^+ IEL activation by scRNA-seq and Nanostring digital transcript counting of FACS-sorted immune subsets and (3) inhibition of gliadin-induced epithelial apoptosis and proliferation. Gain-of-function recombinant IL-15 treatment (R&D #247-ILB) of CeD organoids enhances gliadin-induced (1) expansion of HLA-DQ2:gliadin tetramer^82-positive T cells by FACS, (2) activation of these tetramer(+) CD4^+ T cells or tetramer(−) CD8^+ IELs by scRNA-seq and FACS/Nanostring analysis of immune subsets and (3) induction of epithelial apoptosis and proliferation.

recombinant IL-15: recombinant IL-15 (R&D #247-ILB)
effect on gliadin-induced tetramer-positive T cell expansion, T cell activation, epithelial apoptosis and proliferation: enhances
